We go through 13 compounds from patent US9260429B2, “Pyrido[3,4-B]indoles and methods of use” (Medivation Technologies, Inc., priority 2008, dated 2016).

Where two headings read alike, the source gives them in different places.

Experiment [1] has as its target T1, human recombinant histamine H1 receptor (Homo sapiens, UniProt P35367).
T1 construct: expressed in transfected cells; host or cells: CHO cells
As to the kind of experiment: Histamine H1 radioligand binding ([3H]Pyrilamine). Summed up:
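Binding to the human recombinant histamine H1 receptor, expressed in CHO cells, was measured in a modified Tris-HCl buffer (50 mM Tris-HCl, pH 7.4, 2 mM MgCl2, 100 mM NaCl, 250 mM Sucrose). Compounds were incubated with 1.2 nM [3H]Pyrilamine for 180 minutes at 25° C, with 1 μM pyrilamine defining non-specific binding. After filtration and washing, filter counts gave percent inhibition of specific binding.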

The target in experiment [2] is T2, human recombinant histamine H2 receptor (Homo sapiens, UniProt P25021).
T2 construct: expressed in transfected cells; host or cells: CHO-K1 cells
Briefly: Histamine H2 radioligand binding ([125I]Aminopotentidine). Summed up: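 Membranes of CHO-K1 cells expressing human H2 receptor incubated with 0.1 nM [125I]aminopotentidine, 120 min, 25 °C, 50 mM phosphate pH 7.4; nonspecific binding defined with 3 μM tiotidine.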

For experiment [3], the target named is T3, human recombinant adrenergic α2B receptor (Homo sapiens, UniProt P18089).
T3 construct: expressed in transfected cells; host or cells: CHO-K1 cells
T3 sequence (P18089 1-450): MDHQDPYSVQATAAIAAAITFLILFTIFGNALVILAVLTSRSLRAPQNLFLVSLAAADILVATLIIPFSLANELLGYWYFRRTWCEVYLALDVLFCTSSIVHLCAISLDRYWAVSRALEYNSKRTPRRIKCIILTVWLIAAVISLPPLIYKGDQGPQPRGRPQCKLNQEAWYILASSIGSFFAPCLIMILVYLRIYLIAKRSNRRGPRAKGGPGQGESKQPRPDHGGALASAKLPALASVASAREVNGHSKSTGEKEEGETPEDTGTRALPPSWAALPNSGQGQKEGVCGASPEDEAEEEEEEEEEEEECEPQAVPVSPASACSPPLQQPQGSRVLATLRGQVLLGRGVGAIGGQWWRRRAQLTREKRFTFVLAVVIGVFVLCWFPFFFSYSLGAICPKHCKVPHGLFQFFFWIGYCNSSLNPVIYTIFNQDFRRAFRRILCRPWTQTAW
Briefly: Adrenergic α2B radioligand binding ([3H]Rauwolscine). The essentials: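 Human α2B receptor expressed in CHO-K1 cells, in 50 mM Tris-HCl pH 7.4, 12.5 mM MgCl2, 1 mM EDTA, 0.2% BSA. Binding of 2.5 nM [3H]Rauwolscine, 60 min at 25° C, filtration; non-specific defined with 10 μM prazosin.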

Experiment [4] has as its target T4, human recombinant serotonin (5-Hydroxytryptamine) 5-HT2A receptor (Homo sapiens, UniProt P28223).
T4 construct: expressed in transfected cells; host or cells: CHO-K1 cells
Briefly: Serotonin 5-HT2A radioligand binding ([3H]Ketanserin). The essentials: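 Membranes from CHO-K1 cells expressing the receptor, in 50 mM Tris-HCl pH 7.4, incubated 60 min at 25° C with 0.5 nM [3H]Ketanserin; 1 μM Mianserin defines non-specific binding. Filtration and counting; values are % inhibition of specific binding at 1 μM or lower, 1% DMSO.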

Experiment [5] addresses T5, human recombinant serotonin (5-Hydroxytryptamine) 5-HT6 receptor (Homo sapiens, UniProt P50406).
T5 construct: expressed in transfected cells; host or cells: human HeLa cells
As to the kind of experiment: Serotonin 5-HT6 radioligand binding ([3H]LSD). Summed up: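 Human 5-HT6 receptor expressed in HeLa cells, in Tris-HCl pH 7.4 with 150 mM NaCl, ascorbic acid and BSA. Compounds at 1 μM or lower (1% DMSO) incubated 120 min at 37° C with 1.5 nM [3H]LSD. Non-specific binding defined with serotonin; filter counting gives % inhibition of specific binding.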

Setting [6] is: 1 μM, read-out: Binding data (Percentage Inhibition) Histamine Binding (1 μM) H1.
The mark [7] stands for this setting: 1 μM, inhibition of specific [125I]Aminopotentidine binding, read-out: Binding data (Percentage Inhibition) Histamine Binding (1 μM) H2.
Where [8] appears, read: 1 h, read-out: Percent Inhibition of ligand binding Adrenergic (1 μM ligand conc.) α2B.
The mark [9] stands for this setting: 1 h, read-out: Percent Inhibition of ligand binding Serotonin (1 μM ligand concentration) 5-HT2A.
Setting [10] is: 2 h, read-out: Percent Inhibition of ligand binding Serotonin (1 μM ligand concentration) 5-HT6.

T4 sequence (P28223 whole entry): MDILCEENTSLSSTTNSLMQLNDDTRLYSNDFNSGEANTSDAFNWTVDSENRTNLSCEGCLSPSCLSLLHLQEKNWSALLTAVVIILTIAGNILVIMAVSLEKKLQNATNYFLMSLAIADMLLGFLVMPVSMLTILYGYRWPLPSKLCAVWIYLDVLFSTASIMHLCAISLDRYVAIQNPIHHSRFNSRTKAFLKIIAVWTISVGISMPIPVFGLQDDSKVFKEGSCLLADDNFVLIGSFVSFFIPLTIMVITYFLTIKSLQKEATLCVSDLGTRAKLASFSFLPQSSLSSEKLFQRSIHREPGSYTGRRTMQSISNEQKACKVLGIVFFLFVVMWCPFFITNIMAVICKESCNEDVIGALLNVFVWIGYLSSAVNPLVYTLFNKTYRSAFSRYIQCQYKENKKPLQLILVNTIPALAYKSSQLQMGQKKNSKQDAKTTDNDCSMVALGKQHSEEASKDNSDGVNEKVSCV
T1 sequence (P35367 whole entry): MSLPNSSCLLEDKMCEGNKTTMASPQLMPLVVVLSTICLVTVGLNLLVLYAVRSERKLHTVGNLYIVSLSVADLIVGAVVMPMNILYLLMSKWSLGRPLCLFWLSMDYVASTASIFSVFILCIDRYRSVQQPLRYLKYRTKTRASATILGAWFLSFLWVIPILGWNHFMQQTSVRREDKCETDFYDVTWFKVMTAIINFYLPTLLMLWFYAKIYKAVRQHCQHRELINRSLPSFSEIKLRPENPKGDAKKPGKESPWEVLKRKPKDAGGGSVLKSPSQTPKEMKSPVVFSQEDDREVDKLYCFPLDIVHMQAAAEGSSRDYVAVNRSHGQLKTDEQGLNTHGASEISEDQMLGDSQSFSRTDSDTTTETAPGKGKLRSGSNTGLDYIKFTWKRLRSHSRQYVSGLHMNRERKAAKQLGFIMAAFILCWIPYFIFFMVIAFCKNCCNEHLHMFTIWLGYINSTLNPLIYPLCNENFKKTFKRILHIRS
T5 sequence (P50406 whole entry): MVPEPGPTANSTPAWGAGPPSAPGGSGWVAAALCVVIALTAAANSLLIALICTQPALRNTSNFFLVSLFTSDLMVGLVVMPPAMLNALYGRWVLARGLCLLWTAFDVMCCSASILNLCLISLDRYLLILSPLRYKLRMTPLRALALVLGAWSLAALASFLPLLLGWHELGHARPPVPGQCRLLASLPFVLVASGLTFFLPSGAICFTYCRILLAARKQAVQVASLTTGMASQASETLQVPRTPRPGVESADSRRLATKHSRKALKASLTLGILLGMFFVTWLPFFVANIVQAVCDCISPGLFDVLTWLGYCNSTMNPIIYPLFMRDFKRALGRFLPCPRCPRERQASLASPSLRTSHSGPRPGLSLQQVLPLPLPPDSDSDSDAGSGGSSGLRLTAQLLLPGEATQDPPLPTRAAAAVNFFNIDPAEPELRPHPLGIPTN
T2 sequence (P25021 whole entry): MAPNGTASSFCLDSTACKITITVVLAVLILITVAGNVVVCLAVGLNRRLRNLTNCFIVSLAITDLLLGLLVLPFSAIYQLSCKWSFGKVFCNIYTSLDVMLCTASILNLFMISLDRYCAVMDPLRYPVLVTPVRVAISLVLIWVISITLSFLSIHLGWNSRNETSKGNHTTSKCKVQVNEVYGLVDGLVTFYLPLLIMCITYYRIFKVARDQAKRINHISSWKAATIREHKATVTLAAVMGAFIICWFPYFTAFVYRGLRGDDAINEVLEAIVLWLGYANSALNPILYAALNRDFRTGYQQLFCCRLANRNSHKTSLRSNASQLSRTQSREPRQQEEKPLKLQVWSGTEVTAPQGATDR

For the compound `Cc1ccc2c(c1)c1c(n2C(=O)Cc2ccc(Cl)cc2)C(c2ccccc2)N(C)CC1` (stereo not shown) [Compound 163], the inhibition at 1 µM in experiment [1] (setting [6]) was 13%; in experiment [2] (setting [7]), 27%; in experiment [3] (setting [8]), 37%; in experiment [4] (setting [9]), 98%; in experiment [5] (setting [10]), 89%.
On to `Cc1ccc2c(c1)c1c(n2CC(=O)O)CN(C)CC1` [Compound 53, 2-(1,2,3,4-tetrahydro-2,6-dimethylpyrido[3,4-b]indol-9-yl)acetic acid], for which the inhibition at 1 µM is 5% in experiment [1] (setting [6]); 0% in experiment [2] (setting [7]); 6% in experiment [3] (setting [8]); -6% in experiment [4] (setting [9]); -8% in experiment [5] (setting [10]).
Regarding `CN1CCc2c(n(CC(=O)N3CCCC3)c3ccc(Cl)cc23)C1` [Compound 40, 2-(6-chloro-1,2,3,4-tetrahydro-2-methylpyrido[3,4-b]indol-9-yl)-1-(pyrrolidin-1-yl)ethanone], the inhibition at 1 µM was determined as 7% in experiment [1] (setting [6]); 4% in experiment [2] (setting [7]); 18% in experiment [3] (setting [8]); 5% in experiment [4] (setting [9]); 6% in experiment [5] (setting [10]).
Consider `CC(C)CCN(C)C(=O)Cn1c2c(c3cc(Cl)ccc31)CCN(C)C2` [Compound 14, 2-(6-chloro-1,2,3,4-tetrahydro-2-methylpyrido[3,4-b]indol-9-yl)-N-isopentyl-N-methylacetamide], for which the inhibition at 1 µM in experiment [1] (setting [6]) is 0%; in experiment [2] (setting [7]) it was 12%; in experiment [3] (setting [8]) it was -16%; in experiment [4] (setting [9]) it was 27%; in experiment [5] (setting [10]), 12%.
As for `CCC1c2c(c3cc(Cl)ccc3n2CCc2ccc(F)cc2)CCN1C` (stereo not shown) [Compound 78], the inhibition at 1 µM came out at 71% in experiment [1] (setting [6]); 33% in experiment [2] (setting [7]); 102% in experiment [3] (setting [8]); 80% in experiment [4] (setting [9]); 48% in experiment [5] (setting [10]).
In the case of `CN1CCc2c(n(CCCc3ccccc3)c3ccc(Cl)cc23)C1` [Compound 29, 6-chloro-2,3,4,9-tetrahydro-2-methyl-9-(3-phenylpropyl)-1H-pyrido[3,4-b]indole], the inhibition at 1 µM came out at 98% in experiment [1] (setting [6]); 60% in experiment [2] (setting [7]); 79% in experiment [3] (setting [8]); 83% in experiment [4] (setting [9]); 62% in experiment [5] (setting [10]).
Regarding `CCC1c2c(c3cc(Cl)ccc3n2/C=C(\C)c2ccc(Cl)cc2)CCN1C` (stereo not shown) [Compound 100, 6-chloro-9-(2-(4-chlorophenyl)prop-1-enyl)-1-ethyl-2-methyl-2,3,4,9-tetrahydro-1H-pyrido[3,4-b]indole], the inhibition at 1 µM in experiment [1] (setting [6]) was determined as 33%; in experiment [2] (setting [7]) it was 39%; in experiment [3] (setting [8]), 53%; in experiment [4] (setting [9]), 87%; in experiment [5] (setting [10]), 23%.
Turning to `CC1c2c(c3cc(Cl)ccc3n2C#Cc2ccc(Cl)cc2)CCN1C` (stereo not shown) [Compound 132, 6-chloro-9-((4-chlorophenyl)ethynyl)-1,2-dimethyl-2,3,4,9-tetrahydro-1H-pyrido[3,4-b]indole], the inhibition at 1 µM in experiment [1] (setting [6]) was 14%; in experiment [2] (setting [7]) it was 57%; in experiment [3] (setting [8]) it was 84%; in experiment [4] (setting [9]), 80%; in experiment [5] (setting [10]), 17%.
Take `C/C(=C\n1c2c(c3cc(Cl)ccc31)CCN(C)C2)c1ccc(Cl)cc1` [Compound 98, 6-chloro-9-(2-(4-chlorophenyl)prop-1-enyl)-2-methyl-2,3,4,9-tetrahydro-1H-pyrido[3,4-b]indole]: the inhibition at 1 µM in experiment [1] (setting [6]) was found to be 40%; in experiment [2] (setting [7]) it was 94%; in experiment [3] (setting [8]), 87%; in experiment [4] (setting [9]), 98%; in experiment [5] (setting [10]), 79%.
Turning to `C/C(=C\n1c2c(c3cc(Cl)ccc31)CCN(C)C2)c1ccc(F)cc1` [Compound 90, (E)-6-chloro-9-(2-(4-fluorophenyl)prop-1-enyl)-2-methyl-2,3,4,9-tetrahydro-1H-pyrido[3,4-b]indole], the inhibition at 1 µM worked out at 29% in experiment [1] (setting [6]); 48% in experiment [1] (compound concentration 1 μM, read-out: Percentage inhibition of ligand binding to H1 receptor); 64% in experiment [2] (setting [7]); 64% in experiment [2] (compound concentration 1 μM, read-out: Percentage inhibition of ligand binding to H2 receptor); 97% in experiment [3] (setting [8]); 97% in experiment [3] (compound concentration 1 μM, read-out: Percentage inhibition of ligand binding to Adrenergic α2B receptor). The inhibition at 1 µM in experiment [4] (setting [9]) amounted to 97%; in experiment [4] (compound concentration 1 μM, read-out: Percentage inhibition of ligand binding to 5-HT2A receptor), 97%; in experiment [5] (setting [10]), 98%; in experiment [5] (compound concentration 1 μM, read-out: Percentage inhibition of ligand binding to 5-HT6 receptor), 98%. Further, the inhibition at 3 µM in experiment [1] (compound concentration 3 μM, read-out: Percentage inhibition of ligand binding to H1 receptor) worked out at 76%. Moreover, the inhibition at 10 µM in experiment [1] (compound concentration 10 μM, read-out: Percentage inhibition of ligand binding to H1 receptor) is 94%. The inhibition at 0.003 µM came to 1% in experiment [4] (compound concentration 3 nM, read-out: Percentage inhibition of ligand binding to 5-HT2A receptor) and 16% in experiment [5] (compound concentration 3 nM, read-out: Percentage inhibition of ligand binding to 5-HT6 receptor). For the same compound, the inhibition at 0.01 µM in experiment [4] (compound concentration 10 nM, read-out: Percentage inhibition of ligand binding to 5-HT2A receptor) came out at 9%; in experiment [5] (compound concentration 10 nM, read-out: Percentage inhibition of ligand binding to 5-HT6 receptor) it was 32%. Besides, the inhibition at 0.03 µM in experiment [4] (compound concentration 0.03 μM, read-out: Percentage inhibition of ligand binding to 5-HT2A receptor) was determined as 31%; in experiment [5] (compound concentration 0.03 μM, read-out: Percentage inhibition of ligand binding to 5-HT6 receptor) it was 58%. The inhibition at 0.1 µM in experiment [4] (compound concentration 0.1 μM, read-out: Percentage inhibition of ligand binding to 5-HT2A receptor) is 64%; in experiment [5] (compound concentration 0.1 μM, read-out: Percentage inhibition of ligand binding to 5-HT6 receptor), 81%. For the same compound, the inhibition at 0.3 µM in experiment [4] (compound concentration 0.3 μM, read-out: Percentage inhibition of ligand binding to 5-HT2A receptor) was 87%; in experiment [5] (compound concentration 0.3 μM, read-out: Percentage inhibition of ligand binding to 5-HT6 receptor), 94%.
Take `Cc1ccc2c(c1)c1c(n2CC(C)(O)c2ccc(F)cc2)CN(C)CC1` (stereo not shown) [Compound 61, 1-(2,6-dimethyl-3,4-dihydro-1H-pyrido[3,4-b]indol-9(2H)-yl)-2-(4-fluorophenyl)propan-2-ol]: the inhibition at 1 µM in experiment [1] (setting [6]) is 49%; in experiment [2] (setting [7]), 17%; in experiment [3] (setting [8]), 101%; in experiment [4] (setting [9]), 86%; in experiment [5] (setting [10]) it was 61%.
With `CN1CCc2c(n(CCN3CCCCC3)c3ccc(Cl)cc23)C1` [Compound 34, 6-chloro-2,3,4,9-tetrahydro-2-methyl-9-(2-(piperidin-1-yl)ethyl)-1H-pyrido[3,4-b]indole], the inhibition at 1 µM amounted to 56% in experiment [1] (setting [6]); 20% in experiment [2] (setting [7]); 38% in experiment [3] (setting [8]); 31% in experiment [4] (setting [9]); 16% in experiment [5] (setting [10]).
Taken in the same sequence, the figures for `CN1CCc2c(n(CC(=O)N3CCCCC3)c3ccc(Cl)cc23)C1` [Compound 58, 2-(6-chloro-2-methyl-3,4-dihydro-1H-pyrido[3,4-b]indol-9(2H)-yl)-1-(piperidin-1-yl)ethanone] were 2%, 11%, -15%, -10% and -7%.
